{"source": "paper PMC6979384", "about": "“Characterization of the plant homeodomain (PHD) reader family for their histone tail interactions” (Epigenetics & Chromatin, 2020)", "test_in_all_cases": "Histone peptide microarray", "type_in_all_cases": "binding, human", "details_in_all_cases": "sheet \"Array Heatmap\"", "key": {"KDM5B (3)": {"tested_on": "KDM5B (3)", "outline": "(§1)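 Binding read as mean relative signal from 4 replicates; microarray held 293 synthetic histone peptides with single or combinatorial PTMs. Each GST-tagged PHD reader was applied at 0.5 μM using the optimized Petell protocol.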"}, "ING3": {"tested_on": "ING3", "outline": "as §1"}, "SP140L": {"tested_on": "SP140L", "outline": "as §1"}, "CHD4 (PPCC)": {"tested_on": "CHD4 (PPCC)", "outline": "as §1"}, "PHF23": {"tested_on": "PHF23", "outline": "as §1"}, "MORC3 (CW)": {"tested_on": "MORC3 (CW)", "outline": "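Readout is array binding signal, reported as the mean and standard deviation over four replicates. Each purified GST-fused PHD domain was incubated at 0.5 μM with a library of 293 modified histone peptides.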"}, "KDM4C (TTP)": {"tested_on": "KDM4C (TTP)", "outline": "as §1"}, "ING4": {"tested_on": "ING4", "outline": "as §1"}, "PHF2": {"tested_on": "PHF2", "outline": "as §1"}, "RAG2": {"tested_on": "RAG2", "outline": "as §1"}, "KDM7A": {"tested_on": "KDM7A", "outline": "as §1"}, "PHRF1 (RP)": {"tested_on": "PHRF1 (RP)", "outline": "as §1"}, "DPF2 (PPC2W2)": {"tested_on": "DPF2 (PPC2W2)", "outline": "as §1"}, "PHF13": {"tested_on": "PHF13", "outline": "as §1"}, "ING2": {"tested_on": "ING2", "outline": "as §1"}, "DIDO1": {"tested_on": "DIDO1", "outline": "as §1"}, "MLL5": {"tested_on": "MLL5", "outline": "as §1"}, "KDM5B (1)": {"tested_on": "KDM5B (1)", "outline": "as §1"}, "BPTF (PB)": {"tested_on": "BPTF (PB)", "outline": "as §1"}, "CHD5 (PCC)": {"tested_on": "CHD5 (PCC)", "outline": "as §1"}, "KDM5A (3)": {"tested_on": "KDM5A (3)", "outline": "as §1"}, "PHF8": {"tested_on": "PHF8", "outline": "as §1"}, "TAF3": {"tested_on": "TAF3", "outline": "as §1"}, "ING5": {"tested_on": "ING5", "outline": "as §1"}, "CHD5 (PPCC)": {"tested_on": "CHD5 (PPCC)", "outline": "as §1"}, "ING1": {"tested_on": "ING1", "outline": "as §1"}, "BAZ2B": {"tested_on": "BAZ2B", "outline": "as §1"}, "AIRE (PP)": {"tested_on": "AIRE (PP)", "outline": "as §1"}, "PHF21A": {"tested_on": "PHF21A", "outline": "as §1"}, "KDM5A (1)": {"tested_on": "KDM5A (1)", "outline": "as §1"}, "TRIM66 (PB)": {"tested_on": "TRIM66 (PB)", "outline": "as §1"}}}
{"substance": "H2BK16ac: H2B 1-24 [Peptide H2BK16ac]", "values": [{"measurement": "Array Heatmap value (peptide array signal)", "setting": "KDM5B (3); KDM5B (3), each array performed twice, total n = 4", "result": 0.4678}, {"measurement": "Array Heatmap value (peptide array signal)", "setting": "ING3; ING3, each array performed twice, total n = 4", "result": 0.4774}, {"measurement": "Array Heatmap value (peptide array signal)", "setting": "SP140L; SP140L, each array performed twice, total n = 4", "result": 0.3579}, {"measurement": "Array Heatmap value (peptide array signal)", "setting": "CHD4 (PPCC); CHD4 (PPCC), each array performed twice, total n = 4", "result": 0.5943}, {"measurement": "Array Heatmap value (peptide array signal)", "setting": "PHF23; PHF23, each array performed twice, total n = 4", "result": 0.5681}, {"measurement": "Array Heatmap value (peptide array signal)", "setting": "MORC3 (CW); MORC3 (CW), each array performed twice, total n = 4", "result": 0.3691}, {"measurement": "Array Heatmap value (peptide array signal)", "setting": "KDM4C (TTP); KDM4C (TTP), each array performed twice, total n = 4", "result": 0.4673}, {"measurement": "Array Heatmap value (peptide array signal)", "setting": "ING4; ING4, each array performed twice, total n = 4", "result": 0.4481}, {"measurement": "Array Heatmap value (peptide array signal)", "setting": "PHF2; PHF2, each array performed twice, total n = 4", "result": 0.5633}, {"measurement": "Array Heatmap value (peptide array signal)", "setting": "RAG2; RAG2, each array performed twice, total n = 4", "result": 0.2422}, {"measurement": "Array Heatmap value (peptide array signal)", "setting": "KDM7A; KDM7A, each array performed twice, total n = 4", "result": 0.3335}, {"measurement": "Array Heatmap value (peptide array signal)", "setting": "PHRF1 (RP); PHRF1 (RP), each array performed twice, total n = 4", "result": 0.501}, {"measurement": "Array Heatmap value (peptide array signal)", "setting": "DPF2 (PPC2W2); DPF2 (PPC2W2), each array performed twice, total n = 4", "result": 0.6685}, {"measurement": "Array Heatmap value (peptide array signal)", "setting": "PHF13; PHF13, each array performed twice, total n = 4", "result": 0.6297}, {"measurement": "Array Heatmap value (peptide array signal)", "setting": "ING2; ING2, each array performed twice, total n = 4", "result": 0.6054}, {"measurement": "Array Heatmap value (peptide array signal)", "setting": "DIDO1; DIDO1, each array performed twice, total n = 4", "result": 0.7223}, {"measurement": "Array Heatmap value (peptide array signal)", "setting": "MLL5; MLL5, each array performed twice, total n = 4", "result": 0.5839}, {"measurement": "Array Heatmap value (peptide array signal)", "setting": "KDM5B (1); KDM5B (1), each array performed twice, total n = 4", "result": 0.6719}, {"measurement": "Array Heatmap value (peptide array signal)", "setting": "BPTF (PB); BPTF (PB), each array performed twice, total n = 4", "result": 0.3487}, {"measurement": "Array Heatmap value (peptide array signal)", "setting": "CHD5 (PCC); CHD5 (PCC), each array performed twice, total n = 4", "result": 0.7842}, {"measurement": "Array Heatmap value (peptide array signal)", "setting": "KDM5A (3); KDM5A (3), each array performed twice, total n = 4", "result": 0.4534}, {"measurement": "Array Heatmap value (peptide array signal)", "setting": "PHF8; PHF8, each array performed twice, total n = 4", "result": 0.3517}, {"measurement": "Array Heatmap value (peptide array signal)", "setting": "TAF3; TAF3, each array performed twice, total n = 4", "result": 0.2759}, {"measurement": "Array Heatmap value (peptide array signal)", "setting": "ING5; ING5, each array performed twice, total n = 4", "result": 0.3562}, {"measurement": "Array Heatmap value (peptide array signal)", "setting": "CHD5 (PPCC); CHD5 (PPCC), each array performed twice, total n = 4", "result": 0.5498}, {"measurement": "Array Heatmap value (peptide array signal)", "setting": "ING1; ING1, each array performed twice, total n = 4", "result": 0.5501}, {"measurement": "Array Heatmap value (peptide array signal)", "setting": "BAZ2B; BAZ2B, each array performed twice, total n = 4", "result": 0.4705}, {"measurement": "Array Heatmap value (peptide array signal)", "setting": "AIRE (PP); AIRE (PP), each array performed twice, total n = 4", "result": 0.4203}, {"measurement": "Array Heatmap value (peptide array signal)", "setting": "PHF21A; PHF21A, each array performed twice, total n = 4", "result": 0.4621}, {"measurement": "Array Heatmap value (peptide array signal)", "setting": "KDM5A (1); KDM5A (1), each array performed twice, total n = 4", "result": 0.4583}, {"measurement": "Array Heatmap value (peptide array signal)", "setting": "TRIM66 (PB); TRIM66 (PB), each array performed twice, total n = 4", "result": 0.6089}]}
{"substance": "H3 15-34: H3 15-34", "values": [{"measurement": "Array Heatmap signal, KDM5B (3)", "setting": "KDM5B (3); GST-tagged KDM5B (3), arrays performed twice, total replicate number n = 4", "result": 0.4984}, {"measurement": "Array Heatmap signal, ING3", "setting": "ING3; GST-tagged ING3, arrays performed twice, total replicate number n = 4", "result": 0.5057}, {"measurement": "Array Heatmap signal, SP140L", "setting": "SP140L; GST-tagged SP140L, arrays performed twice, total replicate number n = 4", "result": 0.3812}, {"measurement": "Array Heatmap signal, CHD4 (PPCC)", "setting": "CHD4 (PPCC); GST-tagged CHD4 (PPCC), arrays performed twice, total replicate number n = 4", "result": 0.5968}, {"measurement": "Array Heatmap signal, PHF23", "setting": "PHF23; GST-tagged PHF23, arrays performed twice, total replicate number n = 4", "result": 0.5205}, {"measurement": "Array Heatmap signal, MORC3 (CW)", "setting": "MORC3 (CW); GST-tagged MORC3 (CW), arrays performed twice, total replicate number n = 4", "result": 0.3679}, {"measurement": "Array Heatmap signal, KDM4C (TTP)", "setting": "KDM4C (TTP); GST-tagged KDM4C (TTP), arrays performed twice, total replicate number n = 4", "result": 0.5661}, {"measurement": "Array Heatmap signal, ING4", "setting": "ING4; GST-tagged ING4, arrays performed twice, total replicate number n = 4", "result": 0.5265}, {"measurement": "Array Heatmap signal, PHF2", "setting": "PHF2; GST-tagged PHF2, arrays performed twice, total replicate number n = 4", "result": 0.4604}, {"measurement": "Array Heatmap signal, RAG2", "setting": "RAG2; GST-tagged RAG2, arrays performed twice, total replicate number n = 4", "result": 0.2601}, {"measurement": "Array Heatmap signal, KDM7A", "setting": "KDM7A; GST-tagged KDM7A, arrays performed twice, total replicate number n = 4", "result": 0.4439}, {"measurement": "Array Heatmap signal, PHRF1 (RP)", "setting": "PHRF1 (RP); GST-tagged PHRF1 (RP), arrays performed twice, total replicate number n = 4", "result": 0.4582}, {"measurement": "Array Heatmap signal, DPF2 (PPC2W2)", "setting": "DPF2 (PPC2W2); GST-tagged DPF2 (PPC2W2), arrays performed twice, total replicate number n = 4", "result": 0.6945}, {"measurement": "Array Heatmap signal, PHF13", "setting": "PHF13; GST-tagged PHF13, arrays performed twice, total replicate number n = 4", "result": 0.6527}, {"measurement": "Array Heatmap signal, ING2", "setting": "ING2; GST-tagged ING2, arrays performed twice, total replicate number n = 4", "result": 0.6111}, {"measurement": "Array Heatmap signal, DIDO1", "setting": "DIDO1; GST-tagged DIDO1, arrays performed twice, total replicate number n = 4", "result": 0.6822}, {"measurement": "Array Heatmap signal, MLL5", "setting": "MLL5; GST-tagged MLL5, arrays performed twice, total replicate number n = 4", "result": 0.5742}, {"measurement": "Array Heatmap signal, KDM5B (1)", "setting": "KDM5B (1); GST-tagged KDM5B (1), arrays performed twice, total replicate number n = 4", "result": 0.7112}, {"measurement": "Array Heatmap signal, BPTF (PB)", "setting": "BPTF (PB); GST-tagged BPTF (PB), arrays performed twice, total replicate number n = 4", "result": 0.3761}, {"measurement": "Array Heatmap signal, CHD5 (PCC)", "setting": "CHD5 (PCC); GST-tagged CHD5 (PCC), arrays performed twice, total replicate number n = 4", "result": 0.8306}, {"measurement": "Array Heatmap signal, KDM5A (3)", "setting": "KDM5A (3); GST-tagged KDM5A (3), arrays performed twice, total replicate number n = 4", "result": 0.4281}, {"measurement": "Array Heatmap signal, PHF8", "setting": "PHF8; GST-tagged PHF8, arrays performed twice, total replicate number n = 4", "result": 0.3827}, {"measurement": "Array Heatmap signal, TAF3", "setting": "TAF3; GST-tagged TAF3, arrays performed twice, total replicate number n = 4", "result": 0.3059}, {"measurement": "Array Heatmap signal, ING5", "setting": "ING5; GST-tagged ING5, arrays performed twice, total replicate number n = 4", "result": 0.4109}, {"measurement": "Array Heatmap signal, CHD5 (PPCC)", "setting": "CHD5 (PPCC); GST-tagged CHD5 (PPCC), arrays performed twice, total replicate number n = 4", "result": 0.6174}, {"measurement": "Array Heatmap signal, ING1", "setting": "ING1; GST-tagged ING1, arrays performed twice, total replicate number n = 4", "result": 0.5616}, {"measurement": "Array Heatmap signal, BAZ2B", "setting": "BAZ2B; GST-tagged BAZ2B, arrays performed twice, total replicate number n = 4", "result": 0.514}, {"measurement": "Array Heatmap signal, AIRE (PP)", "setting": "AIRE (PP); GST-tagged AIRE (PP), arrays performed twice, total replicate number n = 4", "result": 0.5155}, {"measurement": "Array Heatmap signal, PHF21A", "setting": "PHF21A; GST-tagged PHF21A, arrays performed twice, total replicate number n = 4", "result": 0.5191}, {"measurement": "Array Heatmap signal, KDM5A (1)", "setting": "KDM5A (1); GST-tagged KDM5A (1), arrays performed twice, total replicate number n = 4", "result": 0.5387}, {"measurement": "Array Heatmap signal, TRIM66 (PB)", "setting": "TRIM66 (PB); GST-tagged TRIM66 (PB), arrays performed twice, total replicate number n = 4", "result": 0.5952}]}
